# Data reported in PMC9820167, “Design and Synthesis of Conformationally Flexible Scaffold as Bitopic Ligands for Potent D3-Selective Antagonists” (International Journal of Molecular Sciences, 2022).
# Assays:
# Test in all cases: PDSP binding screen
# Serotonin 5-HT2A = Serotonin 5-HT2A (Homo sapiens, UniProt P28223)
# Histamine H1 = Histamine H1 (Homo sapiens, UniProt P35367)
# Adrenergic alpha1D = biological target: T1, Adrenergic alpha1D (Homo sapiens, UniProt P25100); details: for inhibition at 10 µM: read-out: Ki (nM) or % inhibition at 10 µM: alpha1D
# T1 sequence (P25100 1-572): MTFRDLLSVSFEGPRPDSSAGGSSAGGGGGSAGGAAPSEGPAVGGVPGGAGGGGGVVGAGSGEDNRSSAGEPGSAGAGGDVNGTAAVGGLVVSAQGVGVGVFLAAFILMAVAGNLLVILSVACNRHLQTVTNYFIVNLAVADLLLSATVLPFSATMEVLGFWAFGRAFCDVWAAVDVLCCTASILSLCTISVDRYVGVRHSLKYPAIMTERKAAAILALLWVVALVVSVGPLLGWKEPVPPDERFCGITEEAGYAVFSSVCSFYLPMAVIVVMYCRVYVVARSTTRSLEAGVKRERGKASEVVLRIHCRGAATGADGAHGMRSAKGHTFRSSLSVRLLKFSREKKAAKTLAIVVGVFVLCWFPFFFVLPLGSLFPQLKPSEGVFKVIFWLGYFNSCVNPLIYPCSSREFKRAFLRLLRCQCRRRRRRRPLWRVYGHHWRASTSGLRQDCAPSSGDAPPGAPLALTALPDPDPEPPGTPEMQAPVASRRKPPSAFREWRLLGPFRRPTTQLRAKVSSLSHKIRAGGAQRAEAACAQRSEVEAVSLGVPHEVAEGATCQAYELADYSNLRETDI
# Dopamine D4 = biological target: T2, Dopamine D4 (Homo sapiens, UniProt P21917)
# T2 sequence (P21917 1-419): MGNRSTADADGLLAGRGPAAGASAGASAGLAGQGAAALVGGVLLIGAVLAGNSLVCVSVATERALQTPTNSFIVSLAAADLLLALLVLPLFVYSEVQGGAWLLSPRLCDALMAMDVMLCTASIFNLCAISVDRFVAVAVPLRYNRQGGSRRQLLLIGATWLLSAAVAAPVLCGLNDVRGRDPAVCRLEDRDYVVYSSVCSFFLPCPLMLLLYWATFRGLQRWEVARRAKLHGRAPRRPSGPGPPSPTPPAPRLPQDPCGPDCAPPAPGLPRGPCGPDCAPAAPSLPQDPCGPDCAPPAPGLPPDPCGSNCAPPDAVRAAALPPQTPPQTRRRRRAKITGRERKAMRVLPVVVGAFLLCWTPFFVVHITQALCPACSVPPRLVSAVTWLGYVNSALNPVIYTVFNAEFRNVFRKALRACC
# Serotonin 5-HT3 = biological target: T3, Serotonin 5-HT3 (Homo sapiens, UniProt P46098)
# T3 sequence (P46098 24-478): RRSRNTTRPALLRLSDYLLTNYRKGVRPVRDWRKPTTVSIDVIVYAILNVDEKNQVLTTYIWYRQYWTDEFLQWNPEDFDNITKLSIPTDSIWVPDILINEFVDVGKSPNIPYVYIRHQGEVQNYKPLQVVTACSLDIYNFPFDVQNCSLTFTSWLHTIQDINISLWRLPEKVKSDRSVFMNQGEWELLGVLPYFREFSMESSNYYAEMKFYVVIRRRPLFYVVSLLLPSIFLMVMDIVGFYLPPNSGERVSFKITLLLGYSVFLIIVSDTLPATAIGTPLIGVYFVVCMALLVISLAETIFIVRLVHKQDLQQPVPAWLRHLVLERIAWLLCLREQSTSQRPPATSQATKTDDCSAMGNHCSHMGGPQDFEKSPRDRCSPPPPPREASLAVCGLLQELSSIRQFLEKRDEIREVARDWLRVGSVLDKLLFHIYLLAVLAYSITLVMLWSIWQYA
# Muscarinic M5 = biological target: T4, Muscarinic M5 (Homo sapiens, UniProt P08912); details: for inhibition at 10 µM: read-out: Ki (nM) or % inhibition at 10 µM: M5
# T4 sequence (P08912 1-532): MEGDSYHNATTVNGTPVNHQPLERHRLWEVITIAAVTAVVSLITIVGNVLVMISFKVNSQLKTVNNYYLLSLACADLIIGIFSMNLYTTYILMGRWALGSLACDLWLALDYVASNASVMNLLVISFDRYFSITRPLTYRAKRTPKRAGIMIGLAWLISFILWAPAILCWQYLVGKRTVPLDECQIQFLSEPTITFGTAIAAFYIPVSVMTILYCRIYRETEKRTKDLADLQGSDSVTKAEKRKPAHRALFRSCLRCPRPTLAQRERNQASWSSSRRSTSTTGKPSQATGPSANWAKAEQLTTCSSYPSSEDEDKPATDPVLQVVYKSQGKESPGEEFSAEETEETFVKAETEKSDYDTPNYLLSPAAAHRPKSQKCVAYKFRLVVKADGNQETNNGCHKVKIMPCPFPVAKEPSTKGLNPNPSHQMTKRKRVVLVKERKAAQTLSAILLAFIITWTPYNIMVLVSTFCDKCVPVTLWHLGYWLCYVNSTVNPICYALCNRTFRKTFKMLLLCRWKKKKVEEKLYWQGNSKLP
# Muscarinic M2 = biological target: T5, Muscarinic M2 (Homo sapiens, UniProt P08172); details: for inhibition at 10 µM: read-out: Ki (nM) or % inhibition at 10 µM: M2
# T5 sequence (P08172 1-466): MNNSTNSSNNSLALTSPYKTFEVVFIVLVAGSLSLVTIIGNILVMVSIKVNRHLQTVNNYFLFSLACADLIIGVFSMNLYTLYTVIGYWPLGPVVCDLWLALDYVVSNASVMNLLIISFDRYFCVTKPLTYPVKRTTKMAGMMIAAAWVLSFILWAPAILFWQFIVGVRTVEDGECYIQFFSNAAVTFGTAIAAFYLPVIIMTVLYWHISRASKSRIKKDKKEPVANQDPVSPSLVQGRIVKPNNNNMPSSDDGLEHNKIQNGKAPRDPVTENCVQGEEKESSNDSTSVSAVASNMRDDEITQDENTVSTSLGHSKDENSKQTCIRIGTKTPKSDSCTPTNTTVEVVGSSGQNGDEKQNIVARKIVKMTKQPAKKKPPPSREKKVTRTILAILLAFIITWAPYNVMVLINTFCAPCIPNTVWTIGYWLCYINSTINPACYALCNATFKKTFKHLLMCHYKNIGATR
# Dopamine D3 = Dopamine D3 (Homo sapiens, UniProt P35462)
# Dopamine D3, sequence (P35462 whole entry): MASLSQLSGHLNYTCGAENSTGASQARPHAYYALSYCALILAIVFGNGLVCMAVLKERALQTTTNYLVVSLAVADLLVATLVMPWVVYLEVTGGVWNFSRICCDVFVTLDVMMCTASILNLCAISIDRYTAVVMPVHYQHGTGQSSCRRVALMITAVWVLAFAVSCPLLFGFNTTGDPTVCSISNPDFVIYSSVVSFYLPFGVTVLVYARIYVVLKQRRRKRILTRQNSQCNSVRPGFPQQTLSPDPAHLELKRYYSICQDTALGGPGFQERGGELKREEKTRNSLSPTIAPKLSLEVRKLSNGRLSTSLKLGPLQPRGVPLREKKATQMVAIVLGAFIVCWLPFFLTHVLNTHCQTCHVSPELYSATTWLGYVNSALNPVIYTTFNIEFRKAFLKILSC
# Histamine H1, sequence (P35367 whole entry): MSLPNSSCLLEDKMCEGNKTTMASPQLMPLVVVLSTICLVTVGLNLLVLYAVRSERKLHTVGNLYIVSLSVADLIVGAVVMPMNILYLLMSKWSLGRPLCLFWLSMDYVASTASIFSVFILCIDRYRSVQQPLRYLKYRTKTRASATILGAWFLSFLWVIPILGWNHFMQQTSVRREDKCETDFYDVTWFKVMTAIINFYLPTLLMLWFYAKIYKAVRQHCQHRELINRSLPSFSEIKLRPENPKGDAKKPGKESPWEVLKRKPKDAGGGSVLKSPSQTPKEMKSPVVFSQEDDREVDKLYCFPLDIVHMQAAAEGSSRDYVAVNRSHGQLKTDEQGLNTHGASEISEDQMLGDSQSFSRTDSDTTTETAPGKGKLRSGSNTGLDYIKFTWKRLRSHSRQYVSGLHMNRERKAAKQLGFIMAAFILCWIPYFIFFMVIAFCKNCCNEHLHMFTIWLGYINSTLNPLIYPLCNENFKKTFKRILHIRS
# Serotonin 5-HT2A, sequence (P28223 whole entry): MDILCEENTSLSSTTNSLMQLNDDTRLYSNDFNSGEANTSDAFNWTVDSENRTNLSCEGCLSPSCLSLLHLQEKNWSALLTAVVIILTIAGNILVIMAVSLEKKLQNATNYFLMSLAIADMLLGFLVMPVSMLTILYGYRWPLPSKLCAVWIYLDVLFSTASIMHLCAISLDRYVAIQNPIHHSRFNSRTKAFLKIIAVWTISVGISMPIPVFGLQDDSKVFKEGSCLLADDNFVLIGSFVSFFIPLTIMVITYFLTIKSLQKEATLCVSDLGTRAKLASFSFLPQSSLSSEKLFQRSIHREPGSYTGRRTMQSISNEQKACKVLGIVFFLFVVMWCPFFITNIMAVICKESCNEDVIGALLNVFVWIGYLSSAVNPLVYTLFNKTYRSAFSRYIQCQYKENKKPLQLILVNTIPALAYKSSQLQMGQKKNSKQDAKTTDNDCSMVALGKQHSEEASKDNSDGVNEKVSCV
Compound,Ki (Serotonin 5-HT2A) [nM],Ki (Histamine H1) [nM],inhibition at 10 µM (Adrenergic alpha1D) [%],Ki (Dopamine D4) [nM],Ki (Serotonin 5-HT3) [nM],inhibition at 10 µM (Muscarinic M5) [%],inhibition at 10 µM (Muscarinic M2) [%],Ki (Dopamine D3) [nM],Ki (Adrenergic alpha1D) [nM],inhibition at 10 µM (Dopamine D4; read-out: Ki (nM) or % inhibition at 10 µM: D4) [%],Ki (Muscarinic M2) [nM],Ki (Muscarinic M5) [nM]
"CCN(CCCNC(=O)c1ccc2ccccc2c1)CCNC(=O)c1cc(Br)cc(OC)c1OC [21a, N-(3-((2-(5-Bromo-2,3-dimethoxybenzamido)ethyl)(ethyl)amino)propyl)-2-naphthamide]",1240,1510,< 50,377,53,< 50,< 50,0.19,–,–,–,–
"CCN(CCCNC(=O)c1ccc(-c2ccsc2)cc1)CCNC(=O)c1cc(Br)cc(OC)c1OC [21g, 5-Bromo-N-(2-(ethyl(3-(4-(thiophen-3-yl)benzamido)propyl)amino)ethyl)-2,3-dimethoxybenzamide]",276,102,–,582,195,< 50,< 50,0.61,1410,–,–,–
"CCN(CCCNC(=O)c1cn2ccccc2n1)CCNC(=O)c1cc(Br)cc(OC)c1OC [21e, N-(3-((2-(5-Bromo-2,3-dimethoxybenzamido)ethyl)(ethyl)amino)propyl)imidazo[1,2-a]pyridine-2-carboxamide]",1330,675,< 50,–,148,< 50,–,0.46,–,< 50,9440,–
"CCN(CCCNC(=O)c1cc2ccccc2n1C)CCNC(=O)c1cc(Br)cc(OC)c1OC [21j, N-(3-((2-(5-Bromo-2,3-dimethoxybenzamido)ethyl)(ethyl)amino)propyl)-1-methyl-1H-indole-2-carboxamide]",3140,1470,< 50,878,246,< 50,–,0.34,–,–,2970,–
"CCN(CCCNC(=O)c1ccsc1)CCNC(=O)c1cc(Br)cc(OC)c1OC [21i, N-(3-((2-(5-Bromo-2,3-dimethoxybenzamido)ethyl)(ethyl)amino)propyl)thiophen-e-3-carboxamide]",1370,84,< 50,514,29,< 50,< 50,0.28,–,–,–,–
"CCN(CCCNC(=O)c1ccc(-c2ccncc2)cc1)CCNC(=O)c1cc(Br)cc(OC)c1OC [21c, 5-Bromo-N-(2-(ethyl(3-(4-(pyridin-4-yl)benzamido)propyl)amino)ethyl)-2,3-dimethoxybenzamide]",727,591,< 50,2180,58,–,–,0.36,–,–,1660,2390
"CCN(CCCNC(=O)c1cc2ccccc2[nH]1)CCNC(=O)c1cc(Br)cc(OC)c1OC [21d, N-(3-((2-(5-Bromo-2,3-dimethoxybenzamido)ethyl)(ethyl)amino)propyl)-1H-indole-2-carboxamide]",844,0.95,–,239,92,–,< 50,0.25,7310,–,–,4220
"CCCN(CCCNC(=O)c1ccc(-c2cccs2)cc1)CCNC(=O)c1cc(Br)cc(OC)c1OC [20a, 5-Bromo-2,3-dimethoxy-N-(2-(propyl(3-(4-(thiophen-2-yl)benzamido)propyl)amino)ethyl)benzamide]",617,1360,–,938,103,< 50,–,1.32,2420,–,4930,–
"CCN(CCCNC(=O)c1ccc(-c2cccs2)cc1)CCNC(=O)c1cc(Br)cc(OC)c1OC [9a, 5-Bromo-N-(2-(ethyl(3-(4-(thiophen-2-yl)benzamido)propyl)amino)ethyl)-2,3-dimethoxybenzamide]",222,1490,–,579,195,–,–,0.83,2560,–,1200,5040
